Columns and labels:
Assay in all cases: relative viability (nuclei count vs DMSO), 5 days (fraction); higher = more cells survive
ChaGo-K-1 = system: ChaGo-K-1
Method in brief: (§1)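 Relative viability divides the nuclei count in treated wells by that in vehicle wells. Lung cancer cell lines were seeded in 1536-well plates, dosed by pin tool the next day, and fixed and stained after 5 days in one step with final 0.05% Triton X-100, 1% formaldehyde and 1 ug/ml Hoechst. Dosing was a single drug or a fixed anchor-drug dose plus five library-drug doses (not always all listed) in √10 steps, and values are medians of duplicate plates imaged at 4×.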

HCC-78 = system: HCC-78
Method in brief: as §1

HCC-827 = system: HCC-827
Method in brief: as §1

LCLC-97TM1 = system: LCLC-97TM1
Method in brief: as §1

LK-2 = system: LK-2
Method in brief: as §1

LOU-NH91 = system: LOU-NH91
Method in brief: as §1

NCI-H1355 = system: NCI-H1355
Method in brief: as §1

NCI-H1395 = system: NCI-H1395
Method in brief: as §1

NCI-H1755 = system: NCI-H1755
Method in brief: as §1

NCI-H1792 = system: NCI-H1792
Method in brief: as §1

NCI-H1993 = system: NCI-H1993
Method in brief: as §1

NCI-H2009 = system: NCI-H2009
Method in brief: as §1

NCI-H2085 = system: NCI-H2085
Method in brief: as §1

NCI-H2228 = system: NCI-H2228
Method in brief: as §1

NCI-H2342 = system: NCI-H2342
Method in brief: as §1

NCI-H2405 = system: NCI-H2405
Method in brief: as §1

NCI-H441 = system: NCI-H441
Method in brief: as §1

NCI-H520 = system: NCI-H520
Method in brief: as §1

NCI-H522 = system: NCI-H522
Method in brief: as §1

NCI-H647 = system: NCI-H647
Method in brief: as §1

NCI-H661 = system: NCI-H661
Method in brief: as §1

PC-3 [JPC-3] = system: PC-3 [JPC-3]
Method in brief: as §1

SK-MES-1 = system: SK-MES-1
Method in brief: as §1

`C=C1C(=O)O[C@@H](CCCCCCCC)[C@@H]1C(=O)O` [C-75] + CC(=O)Nc1cccc(-n2c(=O)n(C3CC3)c(=O)c3c(Nc4ccc(I)cc4F)n(C)c(=O)c(C)c32)c1 [Trametinib] (partner 0.02 µM) was tested, and the relative viability (ChaGo-K-1; first compound 0.08 µM) was 0.878, the relative viability (ChaGo-K-1; first compound 0.253 µM) was 0.875 and the relative viability (ChaGo-K-1; first compound 0.8 µM) was 0.819. It also gave a relative viability (ChaGo-K-1; first compound 2.53 µM) of 0.538, a relative viability (ChaGo-K-1; first compound 8 µM) of 0.907 and a relative viability (HCC-78; first compound 0.08 µM) of 0.776. It also gave a relative viability (HCC-78; first compound 0.253 µM) of 0.935, a relative viability (HCC-78; first compound 0.8 µM) of 0.782 and a relative viability (HCC-78; first compound 8 µM) of 0.62. It also gave a relative viability (HCC-827; first compound 0.253 µM) of 0.786, a relative viability (HCC-827; first compound 0.8 µM) of 0.558 and a relative viability (HCC-827; first compound 8 µM) of 0.55. The relative viability (LCLC-97TM1; first compound 0.08 µM) was 0.211, the relative viability (LCLC-97TM1; first compound 0.253 µM) was 0.162 and the relative viability (LCLC-97TM1; first compound 0.8 µM) was 0.193. It also gave a relative viability (LCLC-97TM1; first compound 2.53 µM) of 0.175, a relative viability (LCLC-97TM1; first compound 8 µM) of 0.177 and a relative viability (LK-2; first compound 0.08 µM) of 0.719. For the same molecule, the relative viability (LK-2; first compound 0.253 µM) was 1.31, the relative viability (LK-2; first compound 0.8 µM) was 0.822 and the relative viability (LK-2; first compound 2.53 µM) was 0.521. It also gave a relative viability (LK-2; first compound 8 µM) of 0.575, a relative viability (LOU-NH91; first compound 0.08 µM) of 0.802 and a relative viability (LOU-NH91; first compound 0.253 µM) of 0.712. For the same molecule, the relative viability (LOU-NH91; first compound 0.8 µM) was 0.762, the relative viability (LOU-NH91; first compound 8 µM) was 0.782 and the relative viability (NCI-H1355; first compound 0.08 µM) was 0.436. For the same molecule, the relative viability (NCI-H1355; first compound 0.253 µM) was 0.406, the relative viability (NCI-H1355; first compound 0.8 µM) was 0.384 and the relative viability (NCI-H1355; first compound 2.53 µM) was 0.343. It also gave a relative viability (NCI-H1355; first compound 8 µM) of 0.448, a relative viability (NCI-H1395; first compound 0.08 µM) of 0.973 and a relative viability (NCI-H1395; first compound 0.253 µM) of 1.05. It also gave a relative viability (NCI-H1395; first compound 2.53 µM) of 1.03, a relative viability (NCI-H1395; first compound 8 µM) of 0.933 and a relative viability (NCI-H1755; first compound 0.08 µM) of 0.763. It also gave a relative viability (NCI-H1755; first compound 0.253 µM) of 0.748, a relative viability (NCI-H1755; first compound 0.8 µM) of 0.76 and a relative viability (NCI-H1755; first compound 2.53 µM) of 0.677. For the same molecule, the relative viability (NCI-H1755; first compound 8 µM) was 0.702, the relative viability (NCI-H1792; first compound 0.08 µM) was 0.474 and the relative viability (NCI-H1792; first compound 0.253 µM) was 0.574. The relative viability (NCI-H1792; first compound 0.8 µM) was 0.438, the relative viability (NCI-H1792; first compound 2.53 µM) was 0.341 and the relative viability (NCI-H1792; first compound 8 µM) was 0.452. The relative viability (NCI-H1993; first compound 0.08 µM) was 0.573, the relative viability (NCI-H1993; first compound 0.253 µM) was 0.541 and the relative viability (NCI-H1993; first compound 0.8 µM) was 0.507. The relative viability (NCI-H1993; first compound 2.53 µM) was 0.576, the relative viability (NCI-H1993; first compound 8 µM) was 0.557 and the relative viability (NCI-H2009; first compound 0.08 µM) was 0.277. For the same molecule, the relative viability (NCI-H2009; first compound 0.253 µM) was 0.249, the relative viability (NCI-H2009; first compound 0.8 µM) was 0.282 and the relative viability (NCI-H2009; first compound 2.53 µM) was 0.262. For the same molecule, the relative viability (NCI-H2009; first compound 8 µM) was 0.332, the relative viability (NCI-H2085; first compound 0.08 µM) was 0.519 and the relative viability (NCI-H2085; first compound 0.253 µM) was 0.666. It also gave a relative viability (NCI-H2085; first compound 0.8 µM) of 0.466, a relative viability (NCI-H2085; first compound 2.53 µM) of 0.559 and a relative viability (NCI-H2085; first compound 8 µM) of 0.521. It also gave a relative viability (NCI-H2228; first compound 0.08 µM) of 0.666, a relative viability (NCI-H2228; first compound 0.253 µM) of 0.673 and a relative viability (NCI-H2228; first compound 0.8 µM) of 0.444. The relative viability (NCI-H2228; first compound 2.53 µM) was 0.372, the relative viability (NCI-H2228; first compound 8 µM) was 0.519 and the relative viability (NCI-H2342; first compound 0.08 µM) was 0.956. It also gave a relative viability (NCI-H2342; first compound 0.253 µM) of 0.813, a relative viability (NCI-H2342; first compound 0.8 µM) of 0.687 and a relative viability (NCI-H2342; first compound 2.53 µM) of 0.65. For the same molecule, the relative viability (NCI-H2342; first compound 8 µM) was 0.917, the relative viability (NCI-H2405; first compound 0.08 µM) was 0.635 and the relative viability (NCI-H2405; first compound 0.253 µM) was 0.47. The relative viability (NCI-H2405; first compound 0.8 µM) was 0.691, the relative viability (NCI-H2405; first compound 2.53 µM) was 0.575 and the relative viability (NCI-H2405; first compound 8 µM) was 0.784. It also gave a relative viability (NCI-H441; first compound 0.08 µM) of 0.569, a relative viability (NCI-H441; first compound 0.253 µM) of 0.533 and a relative viability (NCI-H441; first compound 0.8 µM) of 0.406. It also gave a relative viability (NCI-H441; first compound 8 µM) of 0.548, a relative viability (NCI-H520; first compound 0.08 µM) of 0.689 and a relative viability (NCI-H520; first compound 0.253 µM) of 0.816. The relative viability (NCI-H520; first compound 0.8 µM) was 0.593, the relative viability (NCI-H520; first compound 2.53 µM) was 0.48 and the relative viability (NCI-H520; first compound 8 µM) was 0.533. It also gave a relative viability (NCI-H522; first compound 0.08 µM) of 0.784, a relative viability (NCI-H522; first compound 0.253 µM) of 0.61 and a relative viability (NCI-H522; first compound 0.8 µM) of 0.747. For the same molecule, the relative viability (NCI-H522; first compound 2.53 µM) was 0.845, the relative viability (NCI-H522; first compound 8 µM) was 0.604 and the relative viability (NCI-H647; first compound 0.08 µM) was 0.463. It also gave a relative viability (NCI-H647; first compound 0.253 µM) of 0.533, a relative viability (NCI-H647; first compound 0.8 µM) of 0.361 and a relative viability (NCI-H647; first compound 2.53 µM) of 0.429. It also gave a relative viability (NCI-H647; first compound 8 µM) of 0.28, a relative viability (NCI-H661; first compound 0.08 µM) of 0.524 and a relative viability (NCI-H661; first compound 0.253 µM) of 0.612. It also gave a relative viability (NCI-H661; first compound 0.8 µM) of 0.516, a relative viability (NCI-H661; first compound 2.53 µM) of 0.429 and a relative viability (NCI-H661; first compound 8 µM) of 0.458. For the same molecule, the relative viability (PC-3 [JPC-3]; first compound 0.08 µM) was 0.744, the relative viability (PC-3 [JPC-3]; first compound 0.253 µM) was 0.651 and the relative viability (PC-3 [JPC-3]; first compound 0.8 µM) was 0.657. For the same molecule, the relative viability (PC-3 [JPC-3]; first compound 2.53 µM) was 0.64, the relative viability (PC-3 [JPC-3]; first compound 8 µM) was 0.915 and the relative viability (SK-MES-1; first compound 0.08 µM) was 0.538. The relative viability (SK-MES-1; first compound 0.253 µM) was 0.542, the relative viability (SK-MES-1; first compound 0.8 µM) was 0.48 and the relative viability (SK-MES-1; first compound 2.53 µM) was 0.478. For the same molecule, the relative viability (SK-MES-1; first compound 8 µM) was 0.438.
